The source of these data is PMC8019892, “Para-Aminobenzohydrazide Derivatives as Fatty Acid Amide Hydrolase Inhibitors: Design, Synthesis and Biological Evaluation” (Iranian Journal of Pharmaceutical Research : IJPR, 2020).

Read-outs that look alike come from different tables or passages of the source.

The target in data set [1] is T1, fatty acid amide hydrolase (FAAH) (Homo sapiens, UniProt O00519).
T1 construct: purchased Cayman 10005196
T1 sequence (O00519 1-579): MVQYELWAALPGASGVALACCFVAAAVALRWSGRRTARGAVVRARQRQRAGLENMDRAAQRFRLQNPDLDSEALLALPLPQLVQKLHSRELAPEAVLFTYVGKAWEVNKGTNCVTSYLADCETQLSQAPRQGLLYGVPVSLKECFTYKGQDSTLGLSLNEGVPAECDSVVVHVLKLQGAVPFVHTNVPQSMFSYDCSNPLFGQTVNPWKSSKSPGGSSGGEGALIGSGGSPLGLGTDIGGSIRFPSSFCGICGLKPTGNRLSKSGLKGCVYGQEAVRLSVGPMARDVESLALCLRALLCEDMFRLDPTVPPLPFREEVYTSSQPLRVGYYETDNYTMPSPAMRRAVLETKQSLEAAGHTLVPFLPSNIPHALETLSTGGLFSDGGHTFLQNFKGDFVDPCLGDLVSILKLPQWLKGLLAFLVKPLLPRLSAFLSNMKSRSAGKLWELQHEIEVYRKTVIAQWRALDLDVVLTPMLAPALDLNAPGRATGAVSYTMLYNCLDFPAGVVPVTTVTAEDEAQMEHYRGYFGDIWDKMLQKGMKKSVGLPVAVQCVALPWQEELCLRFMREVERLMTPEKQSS
Nature of the data set: Cayman plate-based fluorometric FAAH assay kit. It counts as biochemical. On the procedure:
The inhibitory activity of the final products was evaluated against fatty acid amide hydrolase with Cayman plate-based fluorometric FAAH assay kit (item number 10005196) using an excitation wavelength of 340 nm and an emission wavelength of 450 nm. The enzyme was incubated with inhibitors for 5 min in […] Tris/HCl buffer (pH 9.0) at 37 °C. AMC-arachidonoyl amide and JZL-195 were used as substrate and positive control respectively. All test samples were dissolved in DMSO.
The IC50 of the compounds with inhibitory activity above 70% and JZL-195, reference compound, were investigated at concentrations of 0.1, 5, 10, 20, 50 and 100 nM. The results are summarized in Table 1 Evaluation of the 5a, 5b and 7 derivatives have well illustrated the effect of phenyl group on inhibitory activity, which is probably directly related to lipophilicity and π-π interactions in lipophilic envelope.

The test system of another data set is FAAH. On the set-up: method as in PMID 28535469, PMID 21764305, PMID 10805767. The note with it: 8 and 9, cited from earlier work.
[2] abbreviates: 100 nM compound, 5 min incubation, Tris/HCl pH 9.0, 37 °C, substrate AMC-arachidonoyl amide, read-out: %inhibition at 100nM.
The mark [3] stands for this setting: concentrations 0.1, 5, 10, 20, 50 and 100 nM, fluorometric FAAH assay, read-out: IC50.

The term inhibition denotes how much of the control response was suppressed. The melting point is the temperature, or range, at which the solid turns liquid. Consider `NC(=O)NNC(=O)c1ccc(NC(N)=O)cc1` [Compound 7, 2-(4-ureidobenzoyl) hydrazine-1-carboxamide], for which the melting point is 226 to 228 °C (dec.). Besides, the inhibition at 0.1 µM in data set [1] (setting [2]) stood at 27.3%.

What is called IC50 is the concentration that inhibits the measured activity by half. `O=C(NNC(=O)c1cccc(Cl)c1)c1ccc(NC(=O)c2cccc(Cl)c2)cc1` [Compound 10b, 3-chloro-N-(4-(2-(3-chlorobenzoyl) hydrazine-1-carbonyl)phenyl) benzamide]: the melting point was 273 to 275 °C. Moreover, the inhibition at 0.1 µM in data set [1] (setting [2]) was found to be 77.4%. The IC50 in data set [1] (setting [3]) turned out to be 13.3 nM.

Take `O=C(Oc1ccc([N+](=O)[O-])cc1)N1CCN(Cc2cccc(Oc3ccccc3)c2)CC1` [JZL-195, reference compound]: in data set [1], the IC50 is 1.31 nM. For the same compound, the inhibition at 0.1 µM in data set [1] (pH 9, read-out: %inhibition at 100nM) is 81%.

`O=C(NNC(=O)c1ccc(NC(=O)c2ccc(Cl)cc2)cc1)c1ccc(Cl)cc1` [Compound 10c, 4-chloro-N-(4-(2-(4-chlorobenzoyl) hydrazine-1-carbonyl)phenyl) benzamide] displayed a melting point of 315 to 318 °C. Besides, the inhibition at 0.1 µM in data set [1] (setting [2]) came out at 77.3%. For the same compound, in data set [1] (setting [3]), the IC50 came to 12.3 nM.

Take `Cc1cccnc1NC(=O)CNC(=O)C(C)c1ccc(Nc2ccnc(C(F)(F)F)c2)cc1` (centres unmarked) [TPA-17]: the half-maximal inhibitory concentration (IC50) with FAAH (known FAAH inhibitor, Figure 1) was 2400 nM. For the same compound, the FAAH inhibitory activity entry in the data set with FAAH (previously reported, in words) was “mild FAAH inhibitory activity”.

`NC(=O)NNC(=O)c1ccc(NC(=O)c2ccc(Cl)cc2)cc1` [Compound 5b, 2-(4-(4-chlorobenzamido)benzoyl) hydrazine-1-carboxamide] returned a melting point of 325 to 327 °C. The inhibition at 0.1 µM in data set [1] (setting [2]) amounted to 63.4%.

`O=C(O)CCC(=O)NNC(=O)c1ccc(NC(=O)CCC(=O)O)cc1` [Compound 11, 4-(2-(4-(3-carboxypropanamido)benzoyl) hydrazineyl)-4-oxobutanoic acid] showed a melting point of 185 to 187 °C. Besides, the inhibition at 0.1 µM in data set [1] (setting [2]) came out at 51.2%.

Regarding `O=C(NNC(=O)c1ccc([N+](=O)[O-])cc1)c1ccc(NC(=O)c2ccc([N+](=O)[O-])cc2)cc1` [Compound 10f, 4-nitro-N-(4-(2-(4-nitrobenzoyl) hydrazine-1-carbonyl)phenyl) benzamide], the melting point is 287 to 289 °C. Besides, the inhibition at 0.1 µM in data set [1] (setting [2]) turned out to be 50.5%.

`O=C(NNC(=O)c1ccccc1C(=O)O)c1ccc(NC(=O)c2ccccc2C(=O)O)cc1` [Compound 12, 2-(2-(4-(2-carboxybenzamido)benzoyl) hydrazine-1-carbonyl) benzoic acid] returned a melting point of 186 °C. For the same compound, the inhibition at 0.1 µM in data set [1] (setting [2]) is 80%. In addition, the IC50 in data set [1] (setting [3]) was found to be 1.62 nM.

For the compound `COc1ccc(C(=O)NNC(=O)c2ccc(NC(=O)c3ccc(OC)cc3)cc2)cc1` [Compound 10d, 4-methoxy-N-(4-(2-(4-methoxybenzoyl) hydrazine-1-carbonyl)phenyl) benzamide], the melting point was 264 to 266 °C. For the same compound, the inhibition at 0.1 µM in data set [1] (setting [2]) was 77.3%. Besides, in data set [1] (setting [3]), the IC50 came to 5.1 nM.

The compound `O=C(NNC(=O)c1ccc(NC(=O)c2ccccc2)cc1)c1ccccc1` [Compound 10a, N-(4-(2-benzoylhydrazine-1-carbonyl)phenyl) benzamide] showed a melting point of 265 to 267 °C. Besides, the inhibition at 0.1 µM in data set [1] (setting [2]) was found to be 81.1%. Besides, the IC50 in data set [1] (setting [3]) amounted to 20.2 nM.

In turn, `O=C(NNS(=O)(=O)c1ccccc1)c1ccc(NS(=O)(=O)c2ccccc2)cc1` [Compound 13, N-(4-(2-(phenylsulfonyl) hydrazine-1-carbonyl)phenyl) benzenesulfonamide] showed a melting point of 239 to 241 °C. The inhibition at 0.1 µM in data set [1] (setting [2]) came to 31.4%.

As for `NC(=O)NNC(=O)c1ccc(NC(=O)c2ccccc2)cc1` [Compound 5a, 2-(4-benzamidobenzoyl) hydrazine-1-carboxamide], the melting point was in the range of 283 to 285 °C. In data set [1] (setting [2]), the inhibition at 0.1 µM was found to be 58.5%.

`O=C(NNC(=O)c1ccc(NC(=O)c2ccc(F)cc2)cc1)c1ccc(F)cc1` [Compound 10e, 4-fluoro-N-(4-(2-(4-fluorobenzoyl) hydrazine-1-carbonyl)phenyl) benzamide] registered a melting point of 322 to 325 °C. Also, in data set [1] (setting [2]), the inhibition at 0.1 µM is 38.9%.

`O=C(NN1C(=O)CCC1=O)c1ccc(N2C(=O)CCC2=O)cc1` [Compound 9, N, 4-bis (2,5-dioxopyrrolidin-1-yl) benzamide]: the melting point is 273 to 275 °C. Besides, the inhibition at 0.1 µM in data set [1] (setting [2]) was found to be 45.1%.

Turning to `O=C(NN1C(=O)c2ccccc2C1=O)c1ccc(N2C(=O)c3ccccc3C2=O)cc1` [Compound 8, N, 4-bis (1,3-dioxoisoindolin-2-yl) benzamide], the melting point was in the range of 316 to 318 °C. The inhibition at 0.1 µM in data set [1] (setting [2]) worked out at 31.3%.

A word on the Ki: it is the equilibrium dissociation constant of an inhibitor or competing ligand from its target. In the case of `O=C(CCCCCCc1ccccc1)c1nnc(-c2ccccn2)o1` [OL-135 analogue], on FAAH (known FAAH inhibitor, Figure 1), the inhibition constant (Ki) was 0.29 nM.
